# Assay results reported in patent US8921372B2, “Inhibitors of hepatitis C virus” (Theravance Biopharma R&D IP, LLC, priority 2010, dated 2014).
# Read-outs that look alike come from different tables or passages of the source.
# Experiments:
# [1] = tested on: HCV genotype 1a replicon cell line (APC89; Huh7.5 cell background); assay: HCV Genotype 1a Replicon Assay (NS3-specific protease activity readout); type: cell-based; details: Hepatitis C virus
# Description: Assay 2: HCV Genotype 1a Replicon Assay
# The HCV genotype 1a replicon cell line was obtained from Apath LLC (APC89; Huh7.5 cell background). This subgenomic replicon contains the N-terminus of the HCV core protein fused to the neomycin-resistance selectable marker. The EMCV IRES lies downstream and drives expression of the non-structural proteins NS3-NS5B. Compound potencies were determined using the NS3-specific protease activity in lysates as a measurement of compound inhibition of replicon levels.
# (§1) Cells were grown at 37° C. in a 5% CO2 humidified incubator in DMEM (Invitrogen) with 10% FBS (HyClone), 1×NEAA (Invitrogen), 1× Pen-Strep (Invitrogen), and 850 μg/mL G418 (Invitrogen). On day 1 of the assay, cells were plated at 15,000 cells/well in black 96-well tissue culture plates (Costar) in 200 μL media lacking G418. Four hours later, once the cells had adhered, the media was removed and replaced with media (no G418) containing dose-responses of test compounds. Compounds were initially diluted in DMSO and then diluted another 200× in media to bring the final DMSO concentration down to 0.5%. The cells were incubated with test compounds for 48 or 72 hours. At the end of the incubation period, media and compound were removed from the plates.
# To determine the NS3-specific protease activity in lysates, the cells were lysed at room temperature in 50 μL/well of 50 mM Hepes pH 7.5, 150 mM NaCl, 15% Glycerol, 0.15% Triton X-100, 10 mM DTT for 20 minutes with shaking. 50 μL of an NS3/4a protease-specific FRET substrate (Anaspec RET S1 Cat#22991) was then added to the wells at a final concentration of 15 μM. The plates were incubated at 37° C. for 20 minutes, which corresponds to a timepoint at which the protease activity is still in the linear phase. Protease activity was determined by measuring fluorescence (Excitation: 340 nm; Emission: 509 nm).
# To analyze the data, the fluorescence was plotted vs. the compound concentration, and EC50 values were determined from a 4-parameter robust fit model using GraphPad Prism software.
# [2] = tested on: HCV genotype 1b replicon cell line (APC144; Huh7 cell background); assay: HCV Genotype 1b Replicon Assay (Renilla luciferase readout); type: cell-based; details: Hepatitis C virus, Huh-7; read-out: Genotype 1b (pEC50 class, HCV genotype 1b replicon assay) (converted)
# Text: Assay 1: HCV Genotype 1b Replicon Assay
# The HCV genotype 1b replicon cell line was obtained from Apath LLC (Brooklyn, N.Y.) (APC144; Huh7 cell background). This subgenomic replicon contains the N-terminus of the HCV core protein fused to the neomycin-resistance selectable marker. The EMCV IRES lies downstream and drives expression of humanized Renilla luciferase fused to the non-structural proteins NS3-NS5B. This cell line was used to determine compound potency using the luciferase activity readout as a measurement of compound inhibition of replicon levels.
# as §1, with “500” for “850”, “10,000” for “15,000”, “white” for “black”, “have” for “had”, “48” for “48 or 72”, “plates and the luciferase activity was determined using Promega Renilla-Glo reagents.” for “plates.”
# To analyze the data, the luciferase activity was plotted vs. the compound concentration, and EC50 values were determined from a 4-parameter robust fit model with the GraphPad Prism software package (GraphPad Software, Inc., San Diego, Calif.). Results are expressed as the negative decadic logarithm of the EC50 value, pEC50.
# Test compounds having a higher pEC50 value in this assay show greater inhibition of HCV genotype 1b replication.
# [3] = 72 hour incubation, read-out: Genotype 1a (pEC50 class, HCV genotype 1a replicon assay) (converted)
smiles,measurement,setting,value
COC(=O)N[C@H](C(=O)N1CCC[C@H]1c1nc(-c2ccc(-c3ccc(NC(=O)c4ccc(N5CCN(C(=O)c6c[nH]cn6)C[C@H]5C)nc4)cc3F)cc2)c[nH]1)C(C)C [Example 48],EC50,[1]; [3],0.1 to 1 nM
same,EC50,[2],< 0.1 nM
COC(=O)N[C@H](C(=O)N1CCC[C@H]1c1nc(-c2ccc(-c3ccc(NC(=O)c4ccc(N5CCN(C(=O)c6c[nH]cn6)C[C@H]5C)nc4)cc3C)cc2)c[nH]1)C(C)C [Example 19],EC50,[1]; [3],0.1 to 1 nM
same,EC50,[2],< 0.1 nM
COC(=O)N[C@H](C(=O)N1CCC[C@H]1c1nc(-c2ccc(-c3ccc(C(=O)Nc4ccc(N5CCN(C(=O)[C@]6(C)CCCN6C(=O)CO)C[C@H]5C)nc4)cc3OC(F)(F)F)cc2)c[nH]1)C(C)C [Example 68],EC50,[1]; [3],0.1 to 1 nM
same,EC50,[2],< 0.1 nM
COC(=O)N[C@H](C(=O)N1CCC[C@H]1c1nc(-c2ccc(-c3cc(Cl)c(NC(=O)c4ccc(N5CCN(C(=O)[C@]6(C)CCCN6C(=O)CN(C)C)C[C@H]5C)nc4)cc3OC(F)(F)F)cc2)c[nH]1)C(C)C [Example 27-72],EC50,[1]; [3],< 0.1 nM
same,EC50,[2],< 0.1 nM
COC(=O)N[C@H](C(=O)N1CCC[C@H]1c1nc(-c2ccc(-c3cc(F)c(NC(=O)c4ccc(N5CCN(C(=O)[C@]6(C)CCCN6C(=O)CO)C[C@H]5C)nc4)cc3OC(F)(F)F)cc2)c[nH]1)C(C)C [Example 27-48],EC50,[1]; [3],< 0.1 nM
same,EC50,[2],< 0.1 nM
COC(=O)N[C@H](C(=O)N1CCC[C@H]1c1nc(-c2ccc(-c3ccc(C(=O)Nc4ccc(N5CCN(C(=O)[C@]6(C)CCCN6C(=O)[C@@H](NC(=O)OC)C(C)C)C[C@H]5C)nc4)cc3OC(F)(F)F)cc2)c[nH]1)C(C)C [Example 56],EC50,[1]; [3],0.1 to 1 nM
same,EC50,[2],< 0.1 nM
COC(=O)N[C@H](C(=O)N1CCC[C@H]1c1nc(-c2ccc(-c3cc(F)c(NC(=O)c4ccc(N5CCN(C(=O)Cn6cccn6)C[C@H]5C)nc4)cc3OC(F)(F)F)cc2)c[nH]1)C(C)C [Example 27-36],EC50,[1]; [3],< 0.1 nM
same,EC50,[2],< 0.1 nM
COC(=O)N[C@H](C(=O)N1CCC[C@H]1c1nc(-c2ccc(-c3ccc(NC(=O)c4ccc(N5C[C@H](C)N(C(=O)[C@]6(C)CCCN6C(=O)[C@@H](NC(=O)OC)C(C)C)C[C@H]5C)nc4)cc3C)c(C)c2)c[nH]1)C(C)C [Example 40],EC50,[1]; [3],0.1 to 1 nM
same,EC50,[2],< 0.1 nM
"COC(=O)N[C@H](C(=O)N1CCC[C@H]1c1nc(-c2ccc(-c3ccc(NC(=O)c4ccc(N5CCN(C(=O)C6CC6)C[C@H]5C)nc4)cc3)cc2)c[nH]1)C(C)C [Example 12, ((S)-1-{(S)-2-[4-(4′-{[6-((R)-4-Cyclopropanecarbonyl-2-methyl-piperazin-1-yl)-pyridine-3-carbonyl]-amino}-biphenyl-4-yl)-1H-imidazol-2-yl]-pyrrolidine-1-carbonyl}-2-methyl-propyl)-carbamic acid methyl ester]",EC50,[1]; [3],0.1 to 1 nM
same,EC50,[2],< 0.1 nM
COC(=O)N[C@H](C(=O)N1CCC[C@H]1c1nc(-c2ccc(-c3ccc(C(=O)Nc4ccc(N5CCN(C(=O)[C@]6(C)CCCN6C(=O)C(C)(C)O)C[C@H]5C)nc4)cc3OC(F)(F)F)cc2)c[nH]1)C(C)C [Example 69],EC50,[1]; [3],0.1 to 1 nM
same,EC50,[2],< 0.1 nM
"COC(=O)N[C@H](C(=O)N1CCC[C@H]1c1nc(-c2ccc(-c3ccc(NC(=O)c4ccc(N5CCN(C(=O)[C@H]6CC6(C)C)C[C@H]5C)nc4)cc3F)cc2)c[nH]1)C(C)C [Example 45, [(S)-1-((S)-2-{5-[4′-({6-[(R)-4-((S)-2,2-Dimethyl-cyclopropanecarbonyl)-2-methyl-piperazin-1-yl]-pyridine-3-carbonyl}-amino)-2′-fluoro-biphenyl-4-yl]-1H-imidazol-2-yl}-pyrrolidine-1-carbonyl)-2-methyl-propyl]-carbamic acid methyl ester]",EC50,[1]; [3],< 0.1 nM
same,EC50,[2],< 0.1 nM
"CNC(=O)N1CCN(c2ccc(C(=O)Nc3ccc(-c4ccc(-c5c[nH]c([C@@H]6CCCN6C(=O)[C@@H](NC(=O)OC)C(C)C)n5)cc4)cc3)cn2)CC1 [Example 10, ((S)-2-Methyl-1-{(S)-2-[4-(4′-{[6-(4-methylcarbamoyl-piperazin-1-yl)-pyridine-3-carbonyl]-amino}-biphenyl-4-yl)-1H-imidazol-2-yl]-pyrrolidine-1-carbonyl}-propyl)-carbamic acid methyl ester]",EC50,"[1]; compounds incubated for 48 hours, read-out: Genotype 1a (pEC50 class, HCV genotype 1a replicon assay), * results (converted)",0.1 to 1 nM
same,EC50,[2],< 0.1 nM
"COC(=O)N[C@H](C(=O)N1CCC[C@H]1c1nc(-c2ccc(-c3ccc(NC(=O)c4ccc(N5CCN(C(=O)C6CC6)CC5)cc4)cc3)cc2)c[nH]1)C(C)C [Example 1, {(S)-1-[(S)-2-(4-{4′-[4-(4-cyclopropanecarbonyl-piperazin-1-yl)-benzoylamino]-biphenyl-4-yl}-1H-imidazol-2-yl)-pyrrolidine-1-carbonyl]-2-methyl-propyl}-carbamic acid methyl ester]",EC50,[1]; [3],1 to 10 nM
same,EC50,[2],< 0.1 nM
"COC(=O)N[C@H](C(=O)N1CCC[C@H]1c1nc(-c2ccc(-c3ccc(NC(=O)c4ccc(N5CCN(C(=O)[C@H]6CC6(C)C)C[C@H]5C)nc4)cc3OC(F)(F)F)cc2)c[nH]1)C(C)C [Example 25, [(S)-1-((S)-2-{5-[4′-({6-[(R)-4-((S)-2,2-Dimethyl-cyclopropanecarbonyl)-2-methyl-piperazin-1-yl]-pyridine-3-carbonyl}-amino)-2′-trifluoromethoxy-biphenyl-4-yl]-1H-imidazol-2-yl}-pyrrolidine-1-carbonyl)-2-methyl-propyl]-carbamic acid methyl ester]",EC50,[1]; [3],< 0.1 nM
same,EC50,[2],< 0.1 nM
"COC(=O)N[C@H](C(=O)N1CCC[C@H]1c1nc(-c2ccc(-c3ccc(NC(=O)c4ccc(N5CCN(C(=O)[C@H]6CC6(C)C)C[C@H]5C)nc4)cc3Cl)cc2)c[nH]1)C(C)C [Example 49, [(S)-1-((S)-2-{4-[2′-Chloro-4′-({6-[(R)-4-((S)-2,2-dimethyl-cyclopropanecarbonyl)-2-methyl-piperazin-1-yl]-pyridine-3-carbonyl}-amino)-biphenyl-4-yl]-1H-imidazol-2-yl}-pyrrolidine-1-carbonyl)-2-methyl-propyl]-carbamic acid methyl ester]",EC50,[1]; [3],< 0.1 nM
same,EC50,[2],< 0.1 nM
CNC(=O)N1C[C@@H](C)N(c2ccc(C(=O)Nc3cc(OC(F)(F)F)c(-c4ccc(-c5c[nH]c([C@@H]6CCCN6C(=O)[C@@H](NC(=O)OC)C(C)C)n5)cc4)cc3F)cn2)C[C@@H]1C [Example 58],EC50,[1]; [3],< 0.1 nM
same,EC50,[2],< 0.1 nM
CNC(=O)N1C[C@@H](C)N(c2ccc(C(=O)Nc3cc(OC(F)(F)F)c(-c4ccc(-c5c[nH]c([C@@H]6CCCN6C(=O)[C@@H](NC(=O)OC)C(C)C)n5)cc4)cc3Cl)cn2)C[C@@H]1C [Example 28-36],EC50,[1]; [3],< 0.1 nM
same,EC50,[2],< 0.1 nM
"COC(=O)N[C@H](C(=O)N1CCC[C@H]1c1nc(-c2ccc(-c3ccc(NC(=O)c4ccc(N5CCN(C(=O)[C@]6(C)CCCN6C(C)=O)C[C@H]5C)nc4)cc3C)cc2)c[nH]1)C(C)C [Example 15, [(S)-1-((S)-2-{5-[4′-({6-[(R)-4-((S)-1-Acetyl-2-methyl-pyrrolidine-2-carbonyl)2-methyl-piperazin-1-yl]-pyridine-3-carbonyl}-amino)-2′-methyl-biphenyl-4-yl]-1H-imidazol-2-yl}-pyrrolidine-1-carbonyl)-2-methyl-propyl]-carbamic acid methyl ester]",EC50,[1]; [3],< 0.1 nM
same,EC50,[2],< 0.1 nM
